Results: PubChem BioAssay AID330 (DTP/NCI, 2004)
Several values for one entry are separate records, joined by “and”; a condition that tells them apart may be missing. Equal values may be shown once. Toxic doses and inconclusive results are not listed.

System: P388 leukemia ip, CD2F1 mice, survival T/C
Assay: NCI In Vivo Anticancer Drug Screen. Data for tumor model P388 Leukemia (intraperitoneal) in CD2F1 (CDF1) mice
Conditions: endpoint: median survival time, higher = longer survival
In short: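 Mice carrying the transplanted tumor received test compound or vehicle. Survival was recorded in each group, and the value is the treated-group measurement divided by that of the vehicle-treated control group.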

[1] = dose: 60.0 mg/kg/injection, schedule: Q01DX005 (ip), vehicle: saline with Tween-80
[2] = dose: 120.0 mg/kg/injection, schedule: Q01DX005 (ip), vehicle: saline with Tween-80
[3] = dose: 12.5 mg/kg/injection, schedule: Q01DX005 (ip), vehicle: saline with Tween-80
[4] = dose: 25.0 mg/kg/injection, schedule: Q01DX005 (ip), vehicle: saline with Tween-80
[5] = dose: 240.0 mg/kg/injection, schedule: Q01DX005 (ip), vehicle: saline with Tween-80
[6] = dose: 50.0 mg/kg/injection, schedule: Q01DX005 (ip), vehicle: saline with Tween-80
[7] = dose: 200.0 mg/kg/injection, schedule: Q01DX005 (ip), vehicle: saline with Tween-80
[8] = dose: 6.25 mg/kg/injection, schedule: Q01DX009 (ip), vehicle: saline with Tween-80
[9] = dose: 12.5 mg/kg/injection, schedule: Q01DX009 (ip), vehicle: saline with Tween-80
[10] = dose: 50.0 mg/kg/injection, schedule: Q01DX009 (ip), vehicle: saline with Tween-80
[11] = dose: 100.0 mg/kg/injection, schedule: Q01DX001 (ip), vehicle: Klucel (hydroxypropylcellulose) (HPC)
[12] = dose: 50.0 mg/kg/injection, schedule: Q01DX005 (ip), vehicle: Klucel (hydroxypropylcellulose) (HPC)
[13] = dose: 100.0 mg/kg/injection, schedule: Q01DX005 (ip), vehicle: Klucel (hydroxypropylcellulose) (HPC)
[14] = dose: 200.0 mg/kg/injection, schedule: Q01DX005 (ip), vehicle: Klucel (hydroxypropylcellulose) (HPC)

## COC(=O)/C=c1/s/c(=C\C(C)=N)[nH]c1=O
[1]
  T/C: 90 % of control
[2]
  T/C: 89 % of control

## O=C(CN1CCCCC1)Nc1nc(-c2ccc(Cl)cc2)cs1
dose: 6.25 mg/kg/injection, schedule: Q01DX005 (ip), vehicle: saline with Tween-80
  T/C: 100 % of control
[3]
  T/C: 94 % of control
[4]
  T/C: 89 % of control

## CC(C)c1ccc(OC(=O)Nc2c(Cl)cccc2Cl)cc1
[1]
  T/C: 108 % of control
[2]
  T/C: 120 % of control
[5]
  T/C: 115 % of control

## [NH-]CC(=O)O.[NH-]CC(=O)O.[Pt+2]
dose: 3.13 mg/kg/injection, schedule: Q01DX009 (ip), vehicle: water
  T/C: 97 % of control
dose: 6.25 mg/kg/injection, schedule: Q01DX009 (ip), vehicle: distilled water + Tween-80
  T/C: 119 % of control
dose: 6.25 mg/kg/injection, schedule: Q01DX009 (ip), vehicle: water
  T/C: 90 % of control and 112 % of control
dose: 12.5 mg/kg/injection, schedule: Q01DX009 (ip), vehicle: distilled water + Tween-80
  T/C: 111 % of control
dose: 12.5 mg/kg/injection, schedule: Q01DX009 (ip), vehicle: water
  T/C: 106 % of control and 110 % of control
dose: 25.0 mg/kg/injection, schedule: Q01DX009 (ip), vehicle: water
  T/C: 100 % of control and 112 % of control
dose: 50.0 mg/kg/injection, schedule: Q01DX009 (ip), vehicle: distilled water + Tween-80
  T/C: 119 % of control
dose: 50.0 mg/kg/injection, schedule: Q01DX009 (ip), vehicle: water
  T/C: 97 % of control
dose: 100.0 mg/kg/injection, schedule: Q01DX009 (ip), vehicle: distilled water + Tween-80
  T/C: 115 % of control
dose: 100.0 mg/kg/injection, schedule: Q01DX009 (ip), vehicle: water
  T/C: 97 % of control
dose: 200.0 mg/kg/injection, schedule: Q01DX009 (ip), vehicle: distilled water + Tween-80
  T/C: 98 % of control

## c1ccc(-c2cc3c(cc4c5nncn5ncn34)o2)cc1
[1]
  T/C: 86 % of control
[2]
  T/C: 86 % of control
[5]
  T/C: 91 % of control and 92 % of control

## CC(C)COC(=O)N(CCCl)N=O
dose: 0.62 mg/kg/injection, schedule: Q01DX009 (ip), vehicle: saline with Tween-80
  T/C: 100 % of control and 111 % of control
dose: 1.25 mg/kg/injection, schedule: Q01DX001 (ip), vehicle: saline with Tween-80
  T/C: 103 % of control
dose: 1.25 mg/kg/injection, schedule: Q01DX009 (ip), vehicle: saline with Tween-80
  T/C: 108 % of control and 116 % of control
dose: 2.5 mg/kg/injection, schedule: Q01DX001 (ip), vehicle: saline with Tween-80
  T/C: 100 % of control
dose: 2.5 mg/kg/injection, schedule: Q01DX009 (ip), vehicle: saline with Tween-80
  T/C: 112 % of control and 115 % of control and 120 % of control
dose: 5.0 mg/kg/injection, schedule: Q01DX001 (ip), vehicle: saline with Tween-80
  T/C: 100 % of control and 112 % of control
dose: 5.0 mg/kg/injection, schedule: Q01DX009 (ip), vehicle: saline with Tween-80
  T/C: 100 % of control and 97 % of control
dose: 10.0 mg/kg/injection, schedule: Q01DX001 (ip), vehicle: saline with Tween-80
  T/C: 90 % of control

## C=C1C(=O)OC2CC3(C)C=CC(=O)C(=C)C3CC12 (configuration not stated)
dose: 12.5 mg/kg/injection, schedule: Q04DX003 (ip), vehicle: Klucel (hydroxypropylcellulose) (HPC)
  T/C: 104 % of control
dose: 25.0 mg/kg/injection, schedule: Q04DX003 (ip), vehicle: Klucel (hydroxypropylcellulose) (HPC)
  T/C: 114 % of control

## O=C1C2C3C=CC(C3)C2C(=O)N1O (configuration not stated)
[6]
  T/C: 101 % of control
dose: 100.0 mg/kg/injection, schedule: Q01DX005 (ip), vehicle: saline with Tween-80
  T/C: 100 % of control
[7]
  T/C: 100 % of control

## CN=C(NC)c1ccc(NC(=O)/C=C\c2ccc(C(=O)Nc3ccc(C(=NC)NC)cc3)cc2)cc1
dose: 3.13 mg/kg/injection, schedule: Q01DX009 (ip), vehicle: saline with Tween-80
  T/C: 172 % of control
dose: 4.4 mg/kg/injection, schedule: Q04DX003 (ip), vehicle: saline with Tween-80
  T/C: 150 % of control
[8]
  T/C: 113 % of control
dose: 10.0 mg/kg/injection, schedule: Q04DX003 (ip), vehicle: saline with Tween-80
  T/C: 155 % of control
[9]
  T/C: 95 % of control
dose: 15.0 mg/kg/injection, schedule: Q04DX003 (ip), vehicle: saline with Tween-80
  T/C: 155 % of control

## CC(C)C(NC(=O)[C@@H](C(C)C)N1C(=O)c2ccccc2C1=O)C(=O)O (some centres not stated)
[3]
  T/C: 101 % of control
[4]
  T/C: 101 % of control
[6]
  T/C: 99 % of control and 88 % of control
[7]
  T/C: 100 % of control

## CC1(/C=C/Cl)CC(Cl)(CBr)C(Cl)CC1Cl (configuration not stated)
dose: 8.75 mg/kg/injection, schedule: Q01DX005 (ip), vehicle: Klucel (hydroxypropylcellulose) (HPC)
  T/C: 97 % of control
dose: 17.5 mg/kg/injection, schedule: Q01DX005 (ip), vehicle: Klucel (hydroxypropylcellulose) (HPC)
  T/C: 91 % of control
dose: 35.0 mg/kg/injection, schedule: Q01DX005 (ip), vehicle: Klucel (hydroxypropylcellulose) (HPC)
  T/C: 97 % of control
dose: 70.0 mg/kg/injection, schedule: Q01DX005 (ip), vehicle: Klucel (hydroxypropylcellulose) (HPC)
  T/C: 91 % of control

## CCn1cc(C(=O)O)c(=O)c2cc(F)c(-n3cccc3)cc21
[1]
  T/C: 101 % of control
[2]
  T/C: 99 % of control
[5]
  T/C: 98 % of control

## COc1cc2c(cc1OC)C1=[N+](CCC1)CC2
dose: 15.0 mg/kg/injection, schedule: Q01DX005 (ip), vehicle: saline
  T/C: 101 % of control
dose: 30.0 mg/kg/injection, schedule: Q01DX005 (ip), vehicle: saline
  T/C: 99 % of control
dose: 60.0 mg/kg/injection, schedule: Q01DX005 (ip), vehicle: saline
  T/C: 99 % of control

## CCOC(=O)c1ccc(N/N=C\C(C)=N/NC(=S)NC)cc1
dose: 100.0 mg/kg/injection, schedule: Q01DX001 (ip), vehicle: saline
  T/C: 108 % of control
dose: 200.0 mg/kg/injection, schedule: Q01DX001 (ip), vehicle: saline
  T/C: 108 % of control
dose: 400.0 mg/kg/injection, schedule: Q01DX001 (ip), vehicle: saline
  T/C: 100 % of control

## C=C(CC(=O)Nc1nc(C)c(C(=O)OC)s1)C(=O)O
[9]
  T/C: 107 % of control
dose: 25.0 mg/kg/injection, schedule: Q01DX009 (ip), vehicle: saline with Tween-80
  T/C: 100 % of control
[10]
  T/C: 105 % of control
dose: 50.0 mg/kg/injection, schedule: Q01DX009 (ip), vehicle: saline
  T/C: 99 % of control
dose: 200.0 mg/kg/injection, schedule: Q01DX009 (ip), vehicle: saline
  T/C: 96 % of control

## CCOC(=O)C(N)C[S][Sn]([CH3])([CH3])[Cl] (configuration not stated)
[10]
  T/C: 91 % of control

## O=C(O)C1C2OC2C2OC2C1C(=O)O (configuration not stated)
dose: 25.0 mg/kg/injection, schedule: Q01DX001 (ip), vehicle: Klucel (hydroxypropylcellulose) (HPC)
  T/C: 89 % of control
dose: 50.0 mg/kg/injection, schedule: Q01DX001 (ip), vehicle: Klucel (hydroxypropylcellulose) (HPC)
  T/C: 92 % of control
[11]
  T/C: 88 % of control

## CS(=O)(=O)C(Cl)(Cl)Cl
[1]
  T/C: 105 % of control
[2]
  T/C: 107 % of control
[5]
  T/C: 112 % of control

## CCC[CH2][Pb]([CH2]CCC)([O]C(C)=O)[O]C(C)=O
dose: 1.56 mg/kg/injection, schedule: Q04DX003 (ip), vehicle: saline
  T/C: 114 % of control
dose: 3.13 mg/kg/injection, schedule: Q04DX003 (ip), vehicle: saline
  T/C: 118 % of control
dose: 6.25 mg/kg/injection, schedule: Q04DX003 (ip), vehicle: saline
  T/C: 120 % of control

## c1ccc(-c2[nH]nc3nc4c(nc23)CCCC4)cc1
[12]
  T/C: 89 % of control
[13]
  T/C: 99 % of control
[14]
  T/C: 92 % of control

## Cc1cc(Cl)c2cc3c(cc2n1)OCO3
[12]
  T/C: 106 % of control
[13]
  T/C: 104 % of control
[14]
  T/C: 98 % of control

## Cc1cc(N(CC(C)Br)CC(C)Br)ccc1N=Nc1ccccc1C(=O)O (configuration not stated)
[8]
  T/C: 196 % of control
[9]
  T/C: 108 % of control
dose: 12.5 mg/kg/injection, schedule: Q01DX009 (oral), vehicle: saline with Tween-80
  T/C: 115 % of control
dose: 50.0 mg/kg/injection, schedule: Q01DX009 (oral), vehicle: saline with Tween-80
  T/C: 157 % of control
dose: 100.0 mg/kg/injection, schedule: Q01DX009 (oral), vehicle: saline with Tween-80
  T/C: 89 % of control

## O=C1CSc2c(ccc3c4c([nH]c23)C(=O)CCC4)N1
[11]
  T/C: 99 % of control
dose: 200.0 mg/kg/injection, schedule: Q01DX001 (ip), vehicle: Klucel (hydroxypropylcellulose) (HPC)
  T/C: 90 % of control
dose: 400.0 mg/kg/injection, schedule: Q01DX001 (ip), vehicle: Klucel (hydroxypropylcellulose) (HPC)
  T/C: 97 % of control
